Results from patent US7541368B2, “Pyrazoles as inhibitors of tumor necrosis factor” (Aventis Pharmaceuticals Inc., priority 2003, dated 2009).

Experiments:
[1] = target: T1, Inactive N-terminal His6 tagged murine P38 (Mus musculus, UniProt P47811); assay: p38 cascade assay (HTRF; inactive p38 activated by MKK-6, ATF-2 phosphorylation); format: biochemical; conditions: inactive p38 preincubated with compound, then MKK-6, ATF-2, ATP; read-out: 50% inhibition in the p38 cascade assay at concentrations within the range
T1 construct: His6 (N); made in house
Description: The homogeneous time resolved fluorescence method (HTRF) assay measured the phosphorylation of human activating transcription factor (ATF)-2 protein by P38 following activation by MKK-6 and was run in A384 well plate format. […] MBP-tagged mouse MKK-6 (final concentration 50 nM), GST-tagged ATF-2 (fmal concentration 200 nM) and ATP (final concentration 50 μM) were then added and the incubation continued for 90 min. p38, MKK-6 and ATF-2 were prepared in the Protein Production Group, Aventis Pharmaceuticals. XL665 labeled anti-GST antibody (Cis Bio International) and cryptate labeled anti-pbospho-ATF2 antibody (Cis Bio International) were then added to generate the specific signal proportional to the phosphorylation of the substrate. The close proximity of XL665 labeled anti-GST antibody/phosphorylated GST-ATF2 complex and the cryptate labeled anti-phospho-ATF2 antibody results in a fluorescence transfer from cryptate to XL665. The resulting fluorescence signal was than read on a LJL Acquest set at multi-method mode using a fluorescence filter set (E=360 nm, Em=615/665 nm) with UV dichroic mirror (Integration time: 300000 μs). The results are reported as IC50 values. Compounds were tested over the concentration range of 3×10^−10M to 3×10^−5M.

[2] = test system: TNF-alpha release in THP-1 cells; assay: LPS-induced TNF-alpha release in THP-1 cells; format: cell-based; conditions: Homo sapiens, THP-1, LPS-stimulated THP-1 cells; read-out: 50% inhibition in the LPS-induced TNF-alpha release in THP-1 cells assay at concentrations within the range
Summary of the method: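 Undifferentiated THP-1 monocytes (1×10^6 cells/ml, 1% FCS) preincubated 1 h at 37° C with compound (1×10^−9 to 1×10^−6 M, 0.3% DMSO), then stimulated with LPS (20 μg/ml) for 18 h. Supernatant TNF-alpha measured by sandwich ELISA (TMB read-out), interpolated from a log/log standard curve (0.125-16 ng/ml).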

T1 sequence (P47811 whole entry): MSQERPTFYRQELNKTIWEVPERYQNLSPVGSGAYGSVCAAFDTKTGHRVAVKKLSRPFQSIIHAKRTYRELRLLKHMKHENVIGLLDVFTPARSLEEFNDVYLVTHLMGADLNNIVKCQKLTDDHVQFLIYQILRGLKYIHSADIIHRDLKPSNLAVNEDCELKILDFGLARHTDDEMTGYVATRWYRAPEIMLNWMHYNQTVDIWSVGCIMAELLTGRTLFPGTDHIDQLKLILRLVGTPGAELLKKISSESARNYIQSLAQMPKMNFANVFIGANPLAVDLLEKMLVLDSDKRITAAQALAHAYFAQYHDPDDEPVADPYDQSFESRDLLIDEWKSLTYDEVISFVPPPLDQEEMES

Row | IC50 [1] | IC50 [2] | SMILES
1 | 10 to 100 nM |  | Cc1ccc(-n2nc(C(C)(C)C)cc2NC(=O)Nc2ccc(CC3CCN(C(=O)c4coc5c4C(=O)CCC5)CC3)cc2)cc1 [Compound A342, 1-(5-tert-Butyl-2-p-tolyl-2H-pyrazol-3-yl)-3-{4-[1-(4-oxo-4,5,6,7-tetrahydro-benzofuran-3-carbonyl)-piperidin-4-ylmethyl]-phenyl}-urea]
2 | 10 to 100 nM | 10 to 500 nM | Cc1ccc(-n2nc(C(C)(C)C)cc2NC(=O)Nc2ccc(CC3CCN(C(=O)c4ccsc4)CC3)cc2)cc1 [Compound A294, 1-(5-tert-Butyl-2-p-tolyl-2H-pyrazol-3-yl)-3-{4-[1-(thiophene-3-carbonyl)-piperidin-4-ylmethyl]-phenyl}-urea]
3 | 10 to 100 nM |  | Cc1ccc(-n2nc(C(C)(C)C)cc2NC(=O)Nc2cccc(CC3CCN(C(=O)C4CCNCC4)CC3)c2)cc1 [Compound A1639, 1-(5-tert-Butyl-2-p-tolyl-2H-pyrazol-3-yl)-3-{3-[1-(piperidine-4-carbonyl)-piperidin-4-ylmethyl]-phenyl}-urea]
4 | 10 to 100 nM | 10 to 500 nM | COc1ccc(OC)c(C(=O)N2CCC(Cc3cccc(NC(=O)Nc4cc(C(C)(C)C)nn4-c4ccc(C)cc4)c3)CC2)c1 [Compound A1636, 1-(5-tert-Butyl-2-p-tolyl-2H-pyrazol-3-yl)-3-{3-[1-(2,5-dimethoxy-benzoyl)-piperidin-4-ylmethyl]-phenyl}-urea]
5 | 10 to 100 nM | 10 to 500 nM | COc1ccc(C(=O)N2CCC(Cc3cccc(NC(=O)Nc4cc(C(C)(C)C)nn4-c4ccc(C)cc4)c3)CC2)c(C)c1 [Compound A120, 1-(5-tert-Butyl-2-p-tolyl-2H-pyrazol-3-yl)-3-{3-[1-(4-methoxy-2-methyl-benzoyl)-piperidin-4-ylmethyl]-phenyl}-urea]
6 | 10 to 100 nM | 10 to 500 nM | Cc1ccc(-n2nc(C(C)(C)C)cc2NC(=O)Nc2ccc(CC3CCN(C(=O)OCC(C)C)CC3)cc2)cc1 [Compound A1625, 4-{4-[3-(5-tert-Butyl-2-p-tolyl-2H-pyrazol-3-yl)-ureido]-benzyl}-piperidine-1-carboxylic acid isobutyl ester]
7 | 10 to 100 nM | 10 to 500 nM | Cc1ccc(-n2nc(C(C)(C)C)cc2NC(=O)Nc2ccc(CC3CCN(C(=O)c4cccnc4)CC3)cc2)cc1 [Compound A377, 1-(5-tert-Butyl-2-p-tolyl-2H-pyrazol-3-yl)-3-{4-[1-(pyridine-3-carbonyl)-piperidin-4-ylmethyl]-phenyl}-urea]
8 | 10 to 100 nM | 10 to 500 nM | CC(=O)NCC(=O)N1CCC(Cc2cccc(NC(=O)Nc3cc(C(C)(C)C)nn3-c3ccc(C)cc3)c2)CC1 [Compound A179, N-[2-(4-{3-[3-(5-tert-Butyl-2-p-tolyl-2H-pyrazol-3-yl)-ureido]-benzyl}-piperidin-1-yl)-2-oxo-ethyl]-acetamide]
9 | 10 to 100 nM | 10 to 500 nM | Cc1ccc(-n2nc(C(C)(C)C)cc2NC(=O)Nc2cccc(CC3CCN(C(=O)Cc4ccccc4F)CC3)c2)cc1 [Compound A43, 1-(5-tert-Butyl-2-p-tolyl-2H-pyrazol-3-yl)-3-(3-{1-[2-(2-fluoro-phenyl)-acetyl]-piperidin-4-ylmethyl}-phenyl)-urea]
10 | 10 to 100 nM | 10 to 500 nM | Cc1ccc(-n2nc(C(C)(C)C)cc2NC(=O)Nc2cccc(CC3CCN(C(=O)c4cccnc4)CC3)c2)cc1 [Compound A181, 1-(5-tert-Butyl-2-p-tolyl-2H-pyrazol-3-yl)-3-{3-[1-(pyridine-3-carbonyl)-piperidin-4-ylmethyl]-phenyl}-urea]
11 | 10 to 100 nM | 10 to 500 nM | CC(=O)Nc1cccc(C(=O)N2CCC(Cc3cccc(NC(=O)Nc4cc(C(C)(C)C)nn4-c4ccc(C)cc4)c3)CC2)c1 [Compound A88, N-[3-(4-{3-[3-(5-tert-Butyl-2-p-tolyl-2H-pyrazol-3-yl)-ureido]-benzyl}-piperidine-1-carbonyl)-phenyl]-acetamide]
12 | 10 to 100 nM | 10 to 500 nM | Cc1ccc(-n2nc(C(C)(C)C)cc2NC(=O)Nc2ccc(CC3CCN(C(=O)c4nccnc4N)CC3)cc2)cc1 [Compound A283, 1-{4-[1-(3-Amino-pyrazine-2-carbonyl)-piperidin-4-ylmethyl]-phenyl}-3-(5-tert-butyl-2-p-tolyl-2H-pyrazol-3-yl)-urea]
13 | 10 to 100 nM | 10 to 500 nM | CC(=O)OCc1ccc(C(=O)N2CCC(Cc3ccc(NC(=O)Nc4cc(C(C)(C)C)nn4-c4ccc(C)cc4)cc3)CC2)cc1 [Compound A336, Acetic acid 4-(4-{4-[3-(5-tert-butyl-2-p-tolyl-2H-pyrazol-3-yl)-ureido]-benzyl}-piperidin-1-carbonyl)-benzyl ester]
14 | 10 to 100 nM | 10 to 500 nM | Cc1ccc(-n2nc(C(C)(C)C)cc2NC(=O)Nc2cccc(CC3CCN(C(=O)c4ccc(C)s4)CC3)c2)cc1 [Compound A137, 1-(5-tert-Butyl-2-p-tolyl-2H-pyrazol-3-yl)-3-{3-[1-(5-methyl-thiophene-2-carbonyl)-piperidin-4-ylmethyl]-phenyl}-urea]
15 | 10 to 100 nM |  | COc1ccc(OC(=O)N2CCC(Cc3ccc(NC(=O)Nc4cc(C(C)(C)C)nn4-c4ccc(C)cc4)cc3)CC2)cc1 [Compound A1605, 4-{4-[3-(5-tert-Butyl-2-p-tolyl-2H-pyrazol-3-yl)-ureido]-benzyl}-piperidine-1-carboxylic acid 4-methoxy-phenyl ester]
16 | 10 to 100 nM | 10 to 500 nM | Cc1ccc(-n2nc(C(C)(C)C)cc2NC(=O)Nc2ccc(CC3CCN(S(C)(=O)=O)CC3)cc2)cc1 [Compound A608, 1-(5-tert-Butyl-2-p-tolyl-2H-pyrazol-3-yl)-3-[4-(1-methanesulfonyl-piperidin-4-ylmethyl)-phenyl]-urea]
17 | 10 to 100 nM |  | Cc1ccc(-n2nc(C(C)(C)C)cc2NC(=O)Nc2ccc(CC3CC4CCC(C3)N4C(=O)c3cccc(C)n3)cc2)cc1 (centres unmarked) [Compound A1640, 1-(5-tert-Butyl-2-p-tolyl-2H-pyrazol-3-yl)-3-{4-[8-(6-methyl-pyridine-2-carbonyl)-8-aza-bicyclo[3.2.1]oct-3-ylmethyl]-phenyl}-urea]
18 | 10 to 100 nM |  | CC(=O)C(=CC(=O)c1ccccc1)NC(=O)N1CCC(Cc2ccc(NC(=O)Nc3cc(C(C)(C)C)nn3-c3ccc(C)cc3)cc2)CC1 [Compound A1641, 4-{4-[3-(5-tert-Butyl-2-p-tolyl-2H-pyrazol-3-yl)-ureido]-benzyl}-piperidine-1-carboxylic acid (1-acetyl-3-oxo-3-phenyl-propenyl)-amide]
19 | 10 to 100 nM |  | Cc1ccc(-n2nc(C(C)(C)C)cc2NC(=O)Nc2cccc(CC3CCN(C(=O)c4cc5ccccc5o4)CC3)c2)cc1 [Compound A1638, 1-{3-[1-(benzofuran-2-carbonyl)-piperidin-4-ylmethyl]-phenyl}-3-(5-tert-butyl-2-p-tolyl-2H-pyrazol-3-yl)-urea]
20 | 10 to 100 nM |  | CC(=O)Nc1cccc(C(=O)N2C3CCC2CC(Cc2cccc(NC(=O)Nc4cc(C(C)(C)C)nn4-c4ccc(C)cc4)c2)C3)c1 (centres unmarked) [Compound A707, N-[3-(3-{3-[3-(5-tert-Butyl-2-p-tolyl-2H-pyrazol-3-yl)-ureido]-benzyl}-8-aza-bicyclo[3.2.1]octane-8-carbonyl)-phenyl]-acetamide]
21 | 10 to 100 nM |  | Cc1ccc(-n2nc(C(C)(C)C)cc2NC(=O)Nc2ccc(CC3CCN(C(=O)O[C@@H]4C[C@H](C)CC[C@H]4C(C)C)CC3)cc2)cc1 [Compound A1644, 4-{4-[3-(5-tert-Butyl-2-p-tolyl-2H-pyrazol-3-yl)-ureido]-benzyl}-piperidin-1-carboxylic acid (1R,2S,5R)-2-isopropyl-5-methyl-cyclohexyl ester]
22 | 10 to 100 nM |  | CC(=O)N1CCC(Cc2ccc(NC(=O)Nc3cc(C(C)(C)C)nn3-c3ccc(C)cc3)cc2)CC1 [Compound A1637, 1-[4-(1-acetyl-piperidin-4-ylmethyl)-phenyl]-3-(5-tert-butyl-2-p-tolyl-2H-pyrazol-3-yl)-urea]
23 | 10 to 100 nM |  | Cc1ccc(-n2nc(C(C)(C)C)cc2NC(=O)Nc2cccc(CC3CC4CCC(C3)N4S(=O)(=O)c3ccc4c(c3)OCCN4C)c2)cc1 (centres unmarked) [Compound A880, 1-(5-tert-Butyl-2-p-tolyl-2H-pyrazol-3-yl)-3-{3-[8-(4-methyl-3,4-dihydro-2H-benzo[1,4]oxazine-7-sulfonyl)-8-aza-bicyclo[3.2.1]oct-3-ylmethyl]-phenyl}-urea]
24 | 10 to 100 nM |  | Cc1ccc(-n2nc(C(C)(C)C)cc2NC(=O)Nc2ccc(CC3CCN(C(=O)c4ccc(O)nc4)CC3)cc2)cc1 [Compound A333, 1-(5-tert-Butyl-2-p-tolyl-2H-pyrazol-3-yl)-3-{4-[1-(6-hydroxy-pyridine-3-carbonyl)-piperidin-4-ylmethyl]-phenyl}-urea]
25 | 10 to 100 nM |  | COC(=O)CCC(=O)N1CCC(Cc2cccc(NC(=O)Nc3cc(C(C)(C)C)nn3-c3ccc(C)cc3)c2)CC1 [Compound A174, 4-(4-{3-[3-(5-tert-Butyl-2-p-tolyl-2H-pyrazol-3-yl)-ureido]-benzyl}-piperidin-1-yl)-4-oxo-butyric acid methyl ester]
